In ChEMBL document CHEMBL3039007, “Structure-based identification of OATP1B1/3 inhibitors” (Mol Pharmacol, 2013):
Residues, ends and D or L forms follow the SMILES beside them. *: point of attachment. For = O=C*

Assays:
[1] = biological target: T1, Solute carrier organic anion transporter family member 1B3 (Homo sapiens, UniProt Q9NPD5); settings: chinese hamster, cho, 10 µM
T1 sequence (Q9NPD5 whole entry): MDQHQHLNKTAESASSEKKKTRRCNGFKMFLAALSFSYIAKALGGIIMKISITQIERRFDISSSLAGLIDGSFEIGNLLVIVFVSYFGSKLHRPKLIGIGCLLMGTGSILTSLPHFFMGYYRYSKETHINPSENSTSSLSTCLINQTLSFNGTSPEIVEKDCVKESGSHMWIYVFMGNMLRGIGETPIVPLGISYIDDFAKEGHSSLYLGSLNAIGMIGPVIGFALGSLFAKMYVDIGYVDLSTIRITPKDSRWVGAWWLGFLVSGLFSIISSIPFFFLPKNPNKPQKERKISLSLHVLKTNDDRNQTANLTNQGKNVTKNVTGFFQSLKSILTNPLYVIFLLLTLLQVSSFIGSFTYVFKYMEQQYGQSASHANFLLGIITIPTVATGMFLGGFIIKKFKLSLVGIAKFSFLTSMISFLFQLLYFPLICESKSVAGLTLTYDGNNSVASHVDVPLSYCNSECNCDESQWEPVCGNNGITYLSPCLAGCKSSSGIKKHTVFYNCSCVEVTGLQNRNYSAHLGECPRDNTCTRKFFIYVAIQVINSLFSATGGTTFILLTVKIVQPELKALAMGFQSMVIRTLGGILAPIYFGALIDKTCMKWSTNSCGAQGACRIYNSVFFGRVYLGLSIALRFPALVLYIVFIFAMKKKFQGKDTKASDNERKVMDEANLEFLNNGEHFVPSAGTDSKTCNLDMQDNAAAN

[2] = biological target: T2, Solute carrier organic anion transporter family member 1B1 (Homo sapiens, UniProt Q9Y6L6); settings: chinese hamster, cho, 10 µM
T2 sequence (Q9Y6L6 whole entry): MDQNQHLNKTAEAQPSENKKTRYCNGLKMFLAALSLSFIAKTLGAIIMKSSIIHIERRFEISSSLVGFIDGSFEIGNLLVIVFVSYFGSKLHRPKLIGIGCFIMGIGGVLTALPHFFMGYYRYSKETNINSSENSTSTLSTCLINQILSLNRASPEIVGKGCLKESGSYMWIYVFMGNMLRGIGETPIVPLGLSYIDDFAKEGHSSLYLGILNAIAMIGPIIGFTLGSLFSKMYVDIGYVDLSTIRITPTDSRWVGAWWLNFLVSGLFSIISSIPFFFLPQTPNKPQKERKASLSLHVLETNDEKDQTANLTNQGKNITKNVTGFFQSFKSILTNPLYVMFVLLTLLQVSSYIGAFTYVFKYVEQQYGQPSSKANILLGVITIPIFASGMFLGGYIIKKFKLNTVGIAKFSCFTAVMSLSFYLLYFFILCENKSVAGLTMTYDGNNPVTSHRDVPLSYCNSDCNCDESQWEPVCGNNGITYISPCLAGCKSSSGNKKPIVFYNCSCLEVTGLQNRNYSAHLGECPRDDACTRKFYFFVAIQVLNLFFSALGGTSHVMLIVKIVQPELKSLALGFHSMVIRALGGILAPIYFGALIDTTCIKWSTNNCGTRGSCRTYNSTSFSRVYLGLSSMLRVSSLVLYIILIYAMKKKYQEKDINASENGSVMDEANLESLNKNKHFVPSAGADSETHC

SMILES | residual activity [1] [%] | residual activity [2] [%]
CC(C)(C)NCC(O)c1cc(O)cc(O)c1.O=S(=O)(O)O (centres undefined) | 94.09 | 89.3
CC(=O)N[C@@H](CC(=O)O)C(=O)O | 103.6 | 127.8163
COc1cccc(OC)c1C(=O)N[C@@H]1C(=O)N2[C@@H]1SC(C)(C)[C@@H]2C(=O)[O-].[Na+] | 108.8 | 68.38
COc1cnc(NS(=O)(=O)c2ccc(N)cc2)nc1 | 112.9 | 233.5
CC(C)CC(N(C)C)C1(c2ccc(Cl)cc2)CCC1.Cl (centres undefined) | 113.9 | 96.94
CC(=O)N[C@@H](CCC(=O)O)C(=O)O | 77.8 | 59.95
CC(C)NCC(O)c1ccc2ccccc2c1.Cl (centres undefined) | 87.91 | 83.88
CC(=O)NC(C(=O)O)C(C)(C)SN=O (centres undefined) | 84.98 | 73.57
C[C@H](CCC(=O)O)[C@H]1CC[C@H]2[C@@H]3CC[C@@H]4CC(=O)CC[C@]4(C)[C@H]3C=C[C@]12C | 203.2 | 40.37
COC(=O)[C@@H]1OC(=O)[C@H]2O[C@]23[C@@]2(C)[C@H](CC[C@@]13C)[C@@]1(C)CCC(=O)C(C)(C)[C@@H]1C[C@H]2OC(C)=O | 99.12 | 49.67
C=C(C)CCC[C@@H](C)CCOC(C)=O | 112.9 | 104.4
CC1(C)C=CC(=O)[C@]2(C)[C@H]3CC[C@@]4(C)[C@H](c5ccoc5)OC(=O)[C@H]5O[C@]54[C@]3(C)C(=O)C[C@@H]12 | 89.62 | 56.15
CC1(C)[C@H](O)C[C@H](O)[C@@]2(C)[C@H]3CC[C@]4(C)[C@@H](c5ccoc5)OC(=O)[C@H]5O[C@]54[C@]3(C)[C@H](O)C[C@@H]12 | 84.19 | 48
C=C1C2CC[C@H]3[C@]4(C)C[C@H](O[C@H]5O[C@H](CO)[C@@H](OS(=O)(=O)[O-])[C@H](OS(=O)(=O)[O-])[C@H]5OC(=O)CC(C)C)C[C@@H](C(=O)O)[C@H]4CC[C@]3(C2)[C@H]1O.[K+].[K+] | 92.24 | 100
C[C@H](CCC(=O)O)[C@H]1CC[C@H]2[C@@H]3CC[C@@H]4C[C@H](O)CC[C@]4(C)[C@H]3C=C[C@]12C | 112 | 23.69
CC(=O)OCC(=O)[C@@]1(O)CC[C@H]2[C@@H]3CC[C@@H]4C[C@H](O)CC[C@]4(C)[C@H]3C(=O)C[C@@]21C | 80 | 81.64
COC[C@]12CN(C=O)C3[C@@H]4[C@H](OC)[C@H]1[C@@]3([C@@H](OC)C[C@H]2O)[C@@H]1C[C@@]2(O)[C@H](OC(=O)c3ccccc3)[C@@H]1[C@]4(OC(C)=O)[C@@H](O)[C@@H]2OC | 73.94 | 90.86
C[C@]12CC[C@@H](OS(=O)(=O)[O-])C[C@@H]1CC[C@@H]1[C@@H]2CC[C@]2(C)C(=O)CC[C@@H]12.[Na+] | 40.78 | 27.84
CC(=O)O[C@H]1CC[C@@]2(C)[C@H](CC[C@@H]3[C@@H]2CC[C@]2(C)[C@@H]4[C@H](C[C@@H]32)O[C@]2(CC[C@@H](C)CO2)[C@H]4C)C1 | 92.75 | 103.6
CC(=O)O[C@H]1CC[C@@]2(C)C(=CC[C@H]3[C@@H]4CC[C@H]([C@H](C)CCCC(C)C)[C@@]4(C)CC[C@@H]32)C1 | 102.8 | 89.8
O=C([O-])c1cc2cc(Cc3cccnc3)ccc2o1.[Na+] | 108.4 | 121

SMILES | residual activity [1] [%] | residual activity [2] [%]
C=C1C(=O)O[C@@H]2C3O[C@]3(C)CC/C=C(\C)CC[C@@H]12 (some centres undefined) | 114.2 | 140.7
O=C1OC(=O)C2C3CCC(O3)C12 (centres undefined) | 93.17 | 106.4
CSCC[C@H](NC=O)C(=O)N[C@@H](Cc1ccccc1)C(=O)O (For-Met-Phe-OH) | 104.4 | 38.77
CC(C)C[C@H](NC(=O)CN)C(=O)N[C@@H](Cc1ccccc1)C(=O)O (H-Gly-Leu-Phe-OH) | 114.9 | 118.4
CC1=CC(=O)CC(C)(C)C1(O)/C=C/C(C)=C\C(=O)O (racemic) [ABSCISIC ACID] | 92.91 | 70.85
CC(C)CC(NC(=O)C(C)N)C(=O)O (racemic) [ALANYL-dl-LEUCINE] | 98.55 | 111.6
CC(N)C(=O)NC(Cc1ccccc1)C(=O)O (racemic) [ALANYL-dl-PHENYLALANINE] | 75.84 | 90.94
COc1ccc(C2COc3cc(O)ccc3C2)c(OC)c1O (racemic) [MUCRONULATOL(+/-)] | 87.73 | 87.17
NC(C(=O)O)C(O)C(=O)O (racemic) [d,l-threo-3-HYDROXYASPARTIC ACID] | 82.91 | 70.17
CC(C)CC(NC(=O)OCC1c2ccccc2-c2ccccc21)C(=O)O (single isomer, unassigned) [N- (9-FLUORENYLMETHOXYCARBONYL)-L-LEUCINE] | 48.34 | 32.48
C=CCCCCCCCCCCCC(O)CC(O)CO (stereo in doubt; form 1) [AVOCADENE] | 100.3 | 107.8
C=CCCCCCCCCCCCC(O)CC(O)CO (stereo in doubt; form 2) [AVOCADENE] | 104.3 | 99.03
CNNC.Cl [1,2-DIMETHYLHYDRAZINE HYDROCHLORIDE] | 99.77 | 108.5
COc1cc(OC)cc(OC)c1 [1,3,5-TRIMETHOXYBENZENE] | 68.6 | 90.48
CCCn1c(=O)c2[nH]c(C3CCCC3)nc2n(CCC)c1=O [1,3-DIPROPYL-8-CYCLOPENTYLXANTHINE [DPCPX]] | 117.3 | 264.1
Cc1cc(O)c2c(c1O)C(=O)c1c(O)cc(C)c(O)c1C2=O [1,4,5,8-TETRAHYDROXY-2,6-DIMETHYLANTHROQUINONE] | 105.2 | 102.7
Clc1ccc(Cl)cc1 [1,4-DICHLOROBENZENE] | 96.49 | 99.98
NC1(C(=O)O)CCC1 [1-AMINOCYCLOBUTANE CARBOXYLIC ACID] | 95.93 | 131.1
NC1(C(=O)O)CC1 [1-Aminocyclopropane carboxylic acid] | 99.32 | 125.9
Cn1c(=O)[nH]c2nc[nH]c2c1=O [1-METHYLXANTHINE] | 96.5 | 102.1
Cl.N=C(N)NC(=N)Nc1ccccc1 [1-PHENYLBIGUANIDE HYDROCHLORIDE] | 94.41 | 80.12
